Structures are written as SMILES.

On to `N#CC(=Cc1cccnc1)c1ccc(Cl)cc1`, for which the melting point lay within 141 to 143 °C.

As to `COC(=O)c1cc(-c2ccc(SC)cc2)nn(CC2CC2)c1=O`, the melting point was 100 to 102 °C.

The compound `Cn1cnc(-c2ccc(NC(=C3C(=O)Oc4ccccc43)c3ccc(C4(N)CC4)cc3)cc2)c1` had a melting point of 190 to 191 °C.

Turning to `COc1ccc(OC2COc3ccc(OCc4cc(OC)ccn4)cc3C2O)cc1` (centres undefined), the melting point was in the range of 80 to 82 °C.

The compound `CN(CCCOc1ccc(OC(F)(F)F)cc1)C1CCN(c2ccc(OC[C@@]3(C)Cn4cc([N+](=O)[O-])nc4O3)cc2)CC1` showed a melting point of 167 to 170 °C.

For the compound `CN(C)C(=O)C(OCc1ccc(-c2ccc(Cl)cc2)cc1)C(F)(F)F` (centres undefined), the melting point is 103 to 107 °C.

As to `N#CN1CCN2c3ccccc3Cc3ccccc3C2C1` (centres undefined), the melting point fell in the range of 164 to 166 °C.

In the case of `CC1(C)CCC(C)(C)c2cc(N(Cc3ccc(Cl)cc3)C(=O)Nc3ccc(C(=O)O)cc3)ccc21`, the melting point lay within 126 to 133 °C.

As for `CCCn1c(=O)c2[nH]c(C3CCCC3)nc2n(CCc2ccc(N)cc2)c1=O`, the melting point was in the range of 248 to 250 °C.

`CCNC(=O)c1c(Cl)cc(C(C)(C)C)cc1[Si](C)(C)C` came in with a melting point of 124 to 126 °C.

`Nc1n[nH]cc1-c1ccc(Cc2ccccc2)cc1`: the melting point lay within 127 to 130 °C.

In turn, `O=C(O)CN1C(=O)C(=Cc2ccc([N+](=O)[O-])o2)SC1=S` returned a melting point of 238 to 242 °C.

On to `Cc1nc(-c2cccnc2)cs1`, for which the melting point amounted to 81 °C.

`Oc1ccccc1C=Nc1ccc(O)c2ccccc12` gave a melting point of 154 to 157 °C.

In turn, `O=C1NC(=O)C(=Cc2ccc(-c3cc(C45CC6CC(CC(C6)C4)C5)c4oc(NC(=O)C(F)(F)F)nc4c3)nc2)S1` displayed a melting point of 353 °C.

`CC(C)(C)OC(=O)NNC(=O)c1ccc2ncsc2c1` had a melting point of 128 to 129 °C.

As to `O=c1c2cc(OCc3ccccc3)ccc2[nH]c2c([N+](=O)[O-])ccc(Cl)c12`, the melting point was in the range of 216 to 217 °C.

In turn, `CC(Oc1ccc(S(C)=O)cc1)c1ccnc2ncnn12` (centres undefined) showed a melting point of 89 to 102 °C.

`C[C@@H]1COC(=O)N1c1nc(-c2cccc(C#N)c2)cs1`: the melting point was in the range of 187 to 189 °C.

`CC1=C(C(=O)OCC[Si](C)(C)C)C(c2cccc([N+](=O)[O-])c2)C(C(=O)OCC[Si](C)(C)C)=C(C)N1` gave a melting point of 120 °C.

In turn, `CCC1c2ccc(C=O)n2-c2ccc(F)cc2N1S(=O)(=O)c1ccc(O)c(C)c1` (centres undefined) came in with a melting point of 192 to 194 °C.

Consider `COCOc1cc2c(cc1-c1cc(-c3ccc(C(=O)O)cc3)ccc1-c1ccccc1)C(C)(C)CCC2(C)C`, for which the melting point was 90 to 94 °C.

The compound `Cc1cnccc1N1CCN(CC(=O)c2ccc(NS(C)(=O)=O)cc2)CC1` yielded a melting point of 201 to 205 °C.

`COc1cc(/C=C/S(=O)(=O)CS(=O)(=O)/C=C/c2ccc(O)c(OC)c2)ccc1O` gave a melting point of 125 to 127 °C.

For `CC(C)Oc1ccc(CN/C=C2\C(=O)NC(=O)c3ccc(Br)cc32)cc1O`, the melting point was 212 to 213 °C.

On to `OP(O)C(NC(c1ccccc1)c1ccccc1)C1CCCCC1` (centres undefined), for which the melting point is 199 °C.

Regarding `CCOC(=O)c1c(C)csc1N/C=C(\C#N)C(=O)OC(C)(C)C`, the melting point was 144 °C.

Regarding `O=C1CNC(c2cccc(Cl)c2)=NN1`, the melting point is 228 to 230 °C.

Compound `CC(C)(C)C(=O)CC(=O)c1ncn2c1c(=O)n(C(C)(C)C)c1ccccc12` yielded a melting point of 190 to 191 °C.

For the compound `CCCCCCOc1cc(C(=O)O)cc(N)c1C(=O)c1ccccc1`, the melting point came out at 168 °C.

Take `CNN(NC)C(=O)Sc1cccnc1C(=O)OC`: the melting point was in the range of 56 to 58 °C.

Consider `CCCCCCCc1cnc([C@H]2CC[C@H](CCCCC)CC2)nc1`, for which the melting point is 22 °C.

`COc1ccc(Sc2ccccc2/C=C/C(=O)NCCCCO)cc1` registered a melting point of 134 to 136 °C.

Compound `CC(C)COc1c(-c2ccc(S(C)(=O)=O)cc2)cnn(CC(F)(F)F)c1=O` showed a melting point of 108 to 110 °C.

Regarding `N#CC1(C#N)C2CC(C(Cl)C2Cl)C1(Cl)Cl` (centres undefined), the melting point amounted to 126 °C.

Take `C[C@]1(COc2ccc(N3CCC(Cc4ccc(Cl)cc4)CC3)cc2)Cn2cc([N+](=O)[O-])nc2O1`: the melting point is 207 to 211 °C.

In turn, `CSc1ncc2c(=O)[nH]c(-c3ccccc3OCC(C)C)nc2n1` returned a melting point of 185 to 186 °C.

Regarding `Cc1c(CC(=O)OCCCO)cc(-c2ccc(S(C)(=O)=O)cc2)n1-c1ccccc1`, the melting point lay within 108 to 110 °C.

In turn, `O=C(O)CCCc1cc2nc(C(F)(F)F)ccc2n1S(=O)(=O)c1ccc2c(c1)OCO2` had a melting point of 161 °C.

For `CC(C)(C)Oc1ccc(C[C@H](NC(=O)OCc2ccccc2)C(=O)C=[N+]=[N-])cc1`, the melting point fell in the range of 80 to 82 °C.

With `CCOC(=O)Cc1sc(Sc2ncccc2C(=O)OCC)nc1C`, the melting point was 181 to 183 °C.

In turn, `CCOC(=O)CCC1(c2c[nH]cn2)Cc2ccccc2C1=O` (centres undefined) had a melting point of 162 to 165 °C.

`CCc1cc(CCCc2ccc(CO)c(CO)c2)ccc1O` registered a melting point of 82 °C.

As for `COc1ccc([C@@H]2Sc3cc(Cl)ccc3N(CCN(C)C)C(=O)[C@@H]2OCC(=O)OC(C)(C)C)cc1`, the melting point is 83 to 84 °C.

`N#Cc1nn(-c2c(Cl)cc(C(F)(F)F)cc2Cl)c(Br)c1[N+](=O)[O-]` yielded a melting point of 147 to 150 °C.

Regarding `CC(C)c1cc(C(=O)O)oc1C(C)C`, the melting point was 105 to 106 °C.

`CC(=O)OCC(=O)C1=CCC2C3CCC4=CC(=O)C=CC4(C)C34OC4CC12C` (centres undefined) returned a melting point of 164 to 165 °C.

Take `CC(C)(C)OC(=O)[C@H]1CC[C@@H](NC(=O)OCc2ccccc2)CC1`: the melting point was 73 to 74 °C.

Consider `O=S(=O)(c1ccc(Cl)cc1)N(Cc1ccc(OC2CCOCC2)nc1)C1CCOCC1`, for which the melting point was 123 to 125 °C.

In turn, `CNC(=C[N+](=O)[O-])NCCCCOc1cccc(CCN(C)C)c1` had a melting point of 59 to 63 °C.

Turning to `CC(C)Oc1ccc(-n2c(CC(=O)O)c(C(=O)O)c3cc(Oc4cccc(C(F)(F)F)c4)ccc32)cc1`, the melting point worked out at 203 °C.

`Cc1cc(-c2nc3c(Cl)cccc3c(=O)[nH]2)cc(C)c1OCCN1CCCC1` had a melting point of 216 to 217 °C.

In turn, `COc1cnc2sc(SCc3ccccc3)nn2c1=O` showed a melting point of 145 to 147 °C.

`C=C1CC(c2ccc(C)c(C)c2)N(C)C1=O` (centres undefined) displayed a melting point of 180 to 184 °C.

For `COc1ccc(S(=O)(=O)CC(C)=CCOC(C)=O)cc1`, the melting point was 54 to 56 °C.

In the case of `CCCCCC(=O)c1c(O)oc(=O)c(C(=O)CCCCC)c1O`, the melting point lay within 87 to 88 °C.

Turning to `CSc1nc(C(C)(C)C)nn1C(=O)N(C)C`, the melting point fell in the range of 51 to 53 °C.

On to `CCOC(=O)c1cc(=O)c(Sc2ccc(OC)cc2)co1`, for which the melting point lay within 90 to 92 °C.

With `Fc1cc(Cl)c(OC(F)F)cc1-c1ncnc(C(F)F)c1Cl`, the melting point was in the range of 56 to 57 °C.

For the compound `CCCC(=O)Cc1ccc(C(=O)Nc2ccc3cc(CN4CCCCC4)cnc3c2C)cc1`, the melting point lay within 164 to 165 °C.

In turn, `Cc1c(-c2ccc(Cl)cc2)c2cc(OC(C)(C)C(=O)O)ccc2n1C` yielded a melting point of 148 to 149 °C.

Regarding `COc1ccc(C(=O)c2cccnc2N2CCCC2=O)cc1`, the melting point fell in the range of 76 to 77 °C.

`COc1cc(Cc2cnc(N)nc2N)cc(OC)c1CN` gave a melting point of 176 to 178 °C.

The compound `Brc1ccc2c(c1)CCC=C2n1ccnc1` displayed a melting point of 58 to 64 °C.

`CCOc1nc2ccccc2n2cc(C(=O)O)nc12` registered a melting point of 220 to 222 °C.

`Cc1ccc(O)cc1C=O` displayed a melting point of 116 to 118 °C.

In turn, `CN(C)C(=O)c1ccc(NS(C)(=O)=O)c(Oc2ccc(F)cc2F)c1` yielded a melting point of 165 to 167 °C.

In the case of `O=C(c1ccc(F)cc1)c1ccnc(Cl)c1`, the melting point lay in the range of 60 to 63 °C.

Consider `CCCCCCCCc1ccc(CCC2(NC(=O)OC(C)(C)C)COC(C)(C)OC2)cc1`, for which the melting point was in the range of 120 to 124 °C.

`COc1ccc(-c2cnc(N3CCc4c([nH]c5ccccc45)C3C3Cc4ccccc4O3)nc2)cc1` (centres undefined) displayed a melting point of 242 to 243 °C.

Take `C=CCOc1ccc(Cl)c2oc(Cc3ccc(OC)cc3)c(C)c12`: the melting point fell in the range of 90 to 93 °C.

Turning to `Nc1c(-c2ccccc2)sc2ccccc12`, the melting point lay within 110 to 112 °C.

Compound `CNC(=O)C(CCO)C1(C)OCCc2c1[nH]c1ccccc21` (centres undefined) showed a melting point of 169 to 171 °C.

`CCOC(=O)C(=NO)C(=O)Nc1ccc(Cl)cc1C(=O)c1ccccc1` showed a melting point of 98 to 105 °C.

The compound `NS(=O)(=O)c1cc(F)c(C(F)(F)F)cc1NC(=O)c1ccccc1` registered a melting point of 223 °C.

`O=C1CCN(c2cc(Cl)cc3cccnc23)CC1` showed a melting point of 223 to 225 °C.

`CCCC(=O)NS(=O)(=O)c1ccc(C(=O)C=Cc2cc(-c3cc4ccccc4[nH]3)c(OC)cc2OC)cc1` came in with a melting point of 155 to 165 °C.

With `COc1cc2cc(COC(C)=O)c(COC(C)=O)c(-c3ccncc3)c2cc1OC`, the melting point is 165 to 167 °C.

`Cc1c(OCC(=O)O)ccc2c(=O)c3ccccc3oc12` came in with a melting point of 244 to 247 °C.

Consider `Nc1c(Br)cc(S(=O)(=O)Cl)cc1Br`, for which the melting point was 153 to 155 °C.

As for `Cc1sc([Si](C)(C)C)cc1C1=C(c2cc([Si](C)(C)C)sc2C)C(F)(F)C(F)(F)C1(F)F`, the melting point was determined as 91.4 °C.

The compound `CCc1ccc2cc[nH]c2n1` showed a melting point of 117 to 120 °C.

Regarding `CC1(C)CCCc2ccc(CC#Cc3ccc(C(=O)O)c(O)c3)cc21`, the melting point fell in the range of 185 to 187 °C.

Compound `CCOC(=O)c1cc2c3ccccc3n(CCCc3ccccc3)c2c(C)n1` gave a melting point of 101 to 102 °C.

As for `CCCCCCCCC1(CCCCCCCC)c2cc([N+](=O)[O-])ccc2-c2ccc([N+](=O)[O-])cc21`, the melting point is 69 to 73 °C.

The compound `COC(=O)c1ccccc1-c1ncc(-c2cccc(C(F)(F)F)c2)o1` returned a melting point of 92.5 to 94 °C.

Compound `Sc1nccc(-c2ccccc2)n1` returned a melting point of 203 to 205 °C.

`CCn1cc(C(=O)O)c(=O)c2ccc(N3CCNCC3)nc21` registered a melting point of 272 to 273 °C.

In turn, `O=c1ccc2cc(C(c3ccccc3)n3ccnc3)ccc2[nH]1` (centres undefined) came in with a melting point of 227 °C.

The record behind these values is a melting point compilation (Tetko et al.; mined from patent text by program, amines drawn as free bases though some values may be those of a salt).
